According to paper PMC10976160, “Comparative Pharmacokinetics Research of 13 Bioactive Components of Jieyu Pills in Control and Attention Deficit Hyperactivity Disorder Model Rats Based on UPLC-Orbitrap Fusion MS” (Molecules, 2024):
Read-outs that look alike come from different tables or passages of the source.

Assay: Pharmacokinetics in ADHD model rats after gavage of JYPs
Type: in vivo, SHR rats (ADHD model)
Settings: for AUC(0-inf) / AUC(0-t) / Cmax / Tmax / half-life / MRT last / MRT inf: male, SHR, rat, plasma; for MRT last: read-out: MRT(0-t); for MRT inf: read-out: MRT(0-∞); for peak time: oral JYPs
Protocol: Based on the established analytical method for plasma samples, a pharmacokinetic study was conducted on 13 constituents in the plasma of ADHD model rats after gavage of JYPs (Figure 3). The linearity of ln(AUC0-t)–ln(dose) and ln(Cmax)–ln(dose) was analyzed in the same way.
For the control experiment, healthy male Sprague Dawley (SD) rats of SPF grade ([…] ± 20 g) were purchased from Sipeifu (Beijing) Biotechnology Co., Ltd. (Beijing, China), Animal Quality Certificate No. 110324220102348616. For the ADHD model rats, healthy male SHR rats of SPF grade, weighing 220 ± 20 g, were purchased from SBF (Beijing) Biotechnology Co., Ltd. (Beijing, China), License No. SCXK (Yu) 2019-0010. The animals were accommodated in the Animal Center of Henan University of Traditional Chinese Medicine, which successfully underwent an ethical audit with ethics number DWLL202208003. The animals were bred under controlled conditions at a temperature of 24 °C and a relative humidity of 50 ± 2%. Before the experiment, the animals abstained from eating for 12 h and had unrestricted access to water. The feeding and experimental research conducted on the experimental animals adhered to the laws outlined in the Management of Experimental Animals in Henan Province.
JYPs were ground into a fine powder and sieved through 60-mesh sieves; then, 20 g of fine JYP powder was taken, having been weighed precisely. A precise volume of 50 mL of pure water was added and mixed well to prepare a 0.4 g/mL suspension solution of JYPs, which was then stored in the refrigerator at 4 °C.
This study involved 24 healthy male SD rats with a body mass of 220 ± 20 g and 24 healthy male ADHD rats with a body mass of 220 ± 20 g. Subjects abstained from food for a duration of 12 h before the experiment and consumed water without restriction. Both kinds of rats were randomly divided into four groups: a blank group, given an equal dose of water intragastrically, and 3 different administration groups: rats given the equivalent human dose of JYPs by gavage in doses of 1.080 g/kg/d, 2.160 g/kg/d, and 4.320 g/kg/d. Tail vein blood was collected at 0.083, 0.25, 0.5, 0.75, 1, 1.5, 2, 3, 4, 6, 8, 12, 18, and 24 h after dosing. About 0.5 mL of blood was collected in sodium heparin centrifugal tubes, then centrifuged at 4 °C for 10 min at a speed of 3500r/min. We took the upper layer and placed it at −80 °C for preservation.
We took 200 μL of plasma, added 600 μL of methanol solution and 50 μL of internal standard (100 ng/mL), and subjected it to shaking for 5 min, followed by centrifugation at 4 °C at 12,000 r/min for 10 min. The supernatant was collected and allowed to dry, then reconstituted with 50 μL of 50% methanol and centrifuged at 4 °C at 14,000 r/min for a further 10 min. The supernatant after this process was taken as the test solution. A volume of 5 μL was used for UPLC-MS analysis. The drug concentration in plasma was calculated with the aid of the internal standard.
Chromatographic conditions: Hypersil GOLD (100 × 2.1 mm, 1.9 μm) column; column temperature 35 °C; mobile phase acetonitrile (A)/0.1% formic acid aqueous solution (B); gradient elution; gradient elution program: 0–0.5 min (95% B–95% B), 0.5–8 min (95% B–50% B), 8–14 min (50% B–20% B), 14–20 min (20% B–5% B), 20–22 min (5% B–5% B), 22–25 min (95% B–95% B); flow rate 0.2 mL/min; injection volume 5 μL. The ion source was electrospray ionization (ESI), with positive and negative ion mode spray voltages of 3.50 and 3.0 kV, an ion transfer tube temperature of 300 °C, nitrogen as the carrier gas, a sheath gas pressure of 35 arb, an auxiliary gas pressure of 8 arb, and an auxiliary heater temperature of 275 °C.

[1] = ADHD model rats, oral JYPs high dose 4.320 g/kg/d (3rd of 3 values)
[2] = ADHD model rats, oral JYPs low dose 1.080 g/kg/d (1st of 3 values)
[3] = ADHD model rats, oral JYPs medium dose 2.160 g/kg/d (2nd of 3 values)
[4] = 1.08 g/kg/day, ADHD model rats, oral JYPs low dose 1.080 g/kg/d (1st of 3 values)
[5] = 2.16 g/kg/day, ADHD model rats, oral JYPs medium dose 2.160 g/kg/d (2nd of 3 values)
[6] = 4.32 g/kg/day, ADHD model rats, oral JYPs high dose 4.320 g/kg/d (3rd of 3 values)

Row | SMILES | AUMC(0-t) [1] | AUMC(0-ꝏ) [1] | AUMC(0-t) [2] | AUMC(0-ꝏ) [2] | AUMC(0-t) [3] | AUMC(0-ꝏ) [3] | AUC(0-inf) [4] | AUC(0-t) [4] | Cmax [4] | Tmax [4] | half-life [4] | MRT last [4] | MRT inf [4] | AUC(0-inf) [5] | AUC(0-t) [5] | Cmax [5] | Tmax [5] | MRT last [5] | MRT inf [5] | AUC(0-inf) [6] | further results
1 | CCC/C=C1\OC(=O)C2=C1CCC=C2 [Z-Ligustilide] | 458.69± 201.28 ng/mL*(h)² | 1348.99± 756.73 ng/mL*(h)² | 322.64± 100.23 ng/mL*(h)² | 870.35± 311.46 ng/mL*(h)² | 383.83± 150.84 ng/mL*(h)² | 1224.58± 657.13 ng/mL*(h)² | 49.3 ± 14.7 ng·h/mL | 36.7 ± 18.2 ng·h/mL | 4.07 ± 1.85 ng/mL | 1.67 ± 1.21 h | 12.8 ± 3.2 h | 8.9 ± 1.12 h | 17.9 ± 4.8 h | 62.2 ± 24.5 ng·h/mL | 44.7 ± 18.2 ng·h/mL | 5.57 ± 2.26 ng/mL | 1.13 ± 0.44 h | 8.72 ± 0.8 h | 20 ± 7.8 h | 69.7 ± 27.1 ng·h/mL | t1/2 [3]: 14.63 ± 7.18 h; AUC(0-t) [6]: 49.5 ± 16.8 ng·h/mL; Cmax [6]: 6.63 ± 1.78 ng/mL; Tmax [6]: 0.96 ± 0.1 h; half-life [6]: 12.5 ± 3.72 h; MRT last [6]: 8.9 ± 1.5 h; MRT inf [6]: 18 ± 5 h
2 | C[C@H]1O[C@@H](O[C@H]2CC[C@@]3(C)[C@@H](CC[C@]4(C)[C@@H]3C=C[C@]35OC[C@@]6(CCC(C)(C)C[C@H]63)[C@H](O)C[C@]54C)[C@]2(C)CO)[C@H](O)[C@@H](O[C@@H]2O[C@H](CO)[C@@H](O)[C@H](O)[C@H]2O)[C@H]1O [Saikosaponin D] | 1294.18± 361.60 ng/mL*(h)² | 3035.93± 850.28 ng/mL*(h)² | 761.68± 201.22 ng/mL*(h)² | 2701.81± 992.13 ng/mL*(h)² | 1149.72± 377.93 ng/mL*(h)² | 3004.18± 2085.30 ng/mL*(h)² | 132 ± 32.3 ng·h/mL | 91.3 ± 24.6 ng·h/mL | 22.6 ± 2.41 ng/mL | 0.58 ± 0.13 h | 15 ± 5.9 h | 8.43 ± 0.96 h | 20.3 ± 5.6 h | 188 ± 55.2 ng·h/mL | 145 ± 32.8 ng·h/mL | 33.1 ± 3.36 ng/mL | 0.54 ± 0.25 h | 7.8 ± 1.36 h | 14.8 ± 6.52 h | 201 ± 50 ng·h/mL | peak time (ADHD model rats): less than 1 h; Clearances [1]: 3506.08 ± 856.33 mL/h; Vss [1]: 53202.65 ± 17657.23 mL; Clearances [2]: 1343.52 ± 399.07 mL/h; Vss [2]: 26784.08 ± 8767.24 mL; Clearances [3]: 1952.91 ± 715.40 mL/h; Vss [3]: 26532.70 ± 7619.14 mL; MRT, model rats compared with control rats (high-dose): higher; half-life [5]: 10.6 ± 4.96 h; AUC(0-t) [6]: 156 ± 38.6 ng·h/mL; Cmax [6]: 41.5 ± 12.4 ng/mL; Tmax [6]: 0.38 ± 0.14 h; half-life [6]: 10.3 ± 2.55 h; MRT last [6]: 8.26 ± 0.54 h; MRT inf [6]: 15.2 ± 2.75 h; AUC, ADHD model rats compared with control rats (medium- and high-dose): higher
3 | C[C@H]1O[C@@H](O[C@H]2CC[C@@]3(C)[C@@H](CC[C@]4(C)[C@@H]3C=C[C@]35OC[C@@]6(CCC(C)(C)C[C@H]63)[C@@H](O)C[C@]54C)[C@]2(C)CO)[C@H](O)[C@@H](O[C@@H]2O[C@H](CO)[C@@H](O)[C@H](O)[C@H]2O)[C@H]1O [Saikosaponin A] | 2395.92± 288.80 ng/mL*(h)² | 5783.46± 3073.92 ng/mL*(h)² | 1392.40± 460.59 ng/mL*(h)² | 4853.64± 3957.39 ng/mL*(h)² | 1937.54± 771.89 ng/mL*(h)² | 5558.75± 2961.42 ng/mL*(h)² | 233 ± 91.2 ng·h/mL | 164 ± 57.5 ng·h/mL | 40.9 ± 22.9 ng/mL | 0.5 ± 0.16 h | 13.3 ± 7.06 h | 8.75 ± 1.6 h | 19.4 ± 9.93 h | 324 ± 131 ng·h/mL | 240 ± 96.6 ng·h/mL | 53 ± 19.2 ng/mL | 0.79 ± 0.19 h | 8.13 ± 1.23 h | 16.8 ± 3.55 h | 387 ± 78.7 ng·h/mL | peak time (ADHD model rats): less than 1 h; Clearances [1]: 2855.71 ± 621.15 mL/h; Vss [1]: 40360.07 ± 12917.92 mL; Clearances [2]: 1291.22 ± 525.61 mL/h; Vss [2]: 23782.60 ± 13625.69 mL; Vss [3]: 35282.72 ± 25449.21 mL; MRT(0-t), ADHD rats compared with control rats (all concentrations): significantly higher; AUC(0-t), model rats compared with control rats (high-dose administration group): significantly greater; half-life [5]: 12.2 ± 2.82 h; AUC(0-t) [6]: 307 ± 55.6 ng·h/mL; Cmax [6]: 73.1 ± 22.6 ng/mL; Tmax [6]: 0.58 ± 0.13 h; half-life [6]: 10.3 ± 4.24 h; MRT last [6]: 7.95 ± 1.2 h; MRT inf [6]: 14.5 ± 5.42 h
